Results reported in PubChem BioAssay (NCI).
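1) Cells in 96-well plates. 2) Compound, 48 h, 5 concentrations. 3) Linear interpolation between surrounding doses. 4) Unreached endpoint = highest concentration. Abbreviation: GI50, concentration required for 50% inhibition of growth. Definition used: TGI = concentration required for complete inhibition of growth.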

Legend:
Assay in all cases: inhibition of tumour cell growth, NCI panel, 48 h
A498 renal = test system: A498 renal
RXF 393 renal = test system: RXF 393 renal
LXFL 529 NSCLC = test system: LXFL 529 NSCLC
TK-10 renal = test system: TK-10 renal
OVCAR-8 ovarian = test system: OVCAR-8 ovarian
SNB-78 CNS = test system: SNB-78 CNS
SK-MEL-5 melanoma = test system: SK-MEL-5 melanoma
MOLT-4 leukemia = test system: MOLT-4 leukemia
HCT-116 colon = test system: HCT-116 colon
LOX IMVI melanoma = test system: LOX IMVI melanoma
NCI-H460 lung = test system: NCI-H460 lung
K-562 leukemia = test system: K-562 leukemia
M14 melanoma = test system: M14 melanoma
HOP-18 NSCLC = test system: HOP-18 NSCLC
SN12C renal = test system: SN12C renal
HOP-62 NSCLC = test system: HOP-62 NSCLC
OVCAR-3 ovarian = test system: OVCAR-3 ovarian
COLO 205 colon = test system: COLO 205 colon
DMS 273 small cell lung = test system: DMS 273 small cell lung
786-0 renal = test system: 786-0 renal
SK-OV-3 ovarian = test system: SK-OV-3 ovarian
DMS 114 small cell lung = test system: DMS 114 small cell lung
UACC-257 melanoma = test system: UACC-257 melanoma
SK-MEL-2 melanoma = test system: SK-MEL-2 melanoma
A549 NSCLC = test system: A549 NSCLC
U251 CNS = test system: U251 CNS
EKVX NSCLC = test system: EKVX NSCLC
ACHN renal = test system: ACHN renal
SF-295 CNS = test system: SF-295 CNS
SF-539 CNS = test system: SF-539 CNS
KM20L2 colon = test system: KM20L2 colon
MALME-3M melanoma = test system: MALME-3M melanoma
M19-MEL melanoma = test system: M19-MEL melanoma
SK-MEL-28 melanoma = test system: SK-MEL-28 melanoma
SW-620 colon = test system: SW-620 colon
SR leukemia = test system: SR leukemia
SF-268 CNS = test system: SF-268 CNS
UACC-62 melanoma = test system: UACC-62 melanoma
HCC-2998 colon = test system: HCC-2998 colon
SNB-19 CNS = test system: SNB-19 CNS
KM12 colon = test system: KM12 colon
OVCAR-5 ovarian = test system: OVCAR-5 ovarian
HCT-15 colon = test system: HCT-15 colon
UO-31 renal = test system: UO-31 renal
RPMI-8226 leukemia = test system: RPMI-8226 leukemia
DLD-1 colon = test system: DLD-1 colon
NCI-H522 lung = test system: NCI-H522 lung
CCRF-CEM leukemia = test system: CCRF-CEM leukemia
NCI-H23 lung = test system: NCI-H23 lung
HOP-92 NSCLC = test system: HOP-92 NSCLC
HL-60(TB) leukemia = test system: HL-60(TB) leukemia
SNB-75 CNS = test system: SNB-75 CNS
CAKI-1 renal = test system: CAKI-1 renal
NCI-H226 lung = test system: NCI-H226 lung
OVCAR-4 ovarian = test system: OVCAR-4 ovarian
HT29 colon = test system: HT29 colon
IGROV1 ovarian = test system: IGROV1 ovarian

**Q.** What does the source list for `O=C1C2=C(CCCC2)Nc2cccc3ncn1c23`?
**A.** TGI (A498 renal): > 100 µM; TGI (RXF 393 renal): > 100 µM; TGI (LXFL 529 NSCLC): > 100 µM; TGI (TK-10 renal): > 100 µM; TGI (OVCAR-8 ovarian): > 100 µM; TGI (SNB-78 CNS): > 100 µM; TGI (SK-MEL-5 melanoma): > 100 µM; TGI (MOLT-4 leukemia): > 100 µM; TGI (HCT-116 colon): > 100 µM; TGI (LOX IMVI melanoma): > 100 µM; TGI (NCI-H460 lung): > 100 µM; TGI (K-562 leukemia): > 100 µM; TGI (M14 melanoma): > 100 µM; TGI (HOP-18 NSCLC): > 100 µM; TGI (SN12C renal): > 100 µM; TGI (HOP-62 NSCLC): > 100 µM; TGI (OVCAR-3 ovarian): > 100 µM; TGI (COLO 205 colon): > 100 µM; TGI (DMS 273 small cell lung): > 100 µM; TGI (786-0 renal): > 100 µM; TGI (SK-OV-3 ovarian): > 100 µM; TGI (DMS 114 small cell lung): > 100 µM; TGI (UACC-257 melanoma): > 100 µM; TGI (SK-MEL-2 melanoma): > 100 µM; TGI (A549 NSCLC): > 100 µM; TGI (U251 CNS): > 100 µM; TGI (EKVX NSCLC): > 100 µM; TGI (ACHN renal): > 100 µM; TGI (SF-295 CNS): > 100 µM; TGI (SF-539 CNS): > 100 µM; TGI (KM20L2 colon): > 100 µM; TGI (MALME-3M melanoma): > 100 µM; TGI (M19-MEL melanoma): > 100 µM; TGI (SK-MEL-28 melanoma): > 100 µM; TGI (SW-620 colon): > 100 µM; TGI (SR leukemia): > 100 µM; TGI (SF-268 CNS): > 100 µM; TGI (UACC-62 melanoma): > 100 µM; TGI (HCC-2998 colon): > 100 µM; TGI (SNB-19 CNS): > 100 µM; TGI (KM12 colon): > 100 µM; TGI (OVCAR-5 ovarian): > 100 µM; TGI (HCT-15 colon): > 100 µM; TGI (UO-31 renal): > 100 µM; TGI (RPMI-8226 leukemia): > 100 µM; TGI (DLD-1 colon): > 100 µM; TGI (NCI-H522 lung): > 100 µM; TGI (CCRF-CEM leukemia): > 100 µM; TGI (NCI-H23 lung): > 100 µM; TGI (HOP-92 NSCLC): > 100 µM; TGI (HL-60(TB) leukemia): > 100 µM

**Q.** What does the source list for `Cn1cc2ccccc2c1-c1nc(F)nc(Oc2ccc3c(c2)CC[C@@H]2C3CC[C@@]3(C)C2CC[C@@H]3O)n1` (stereo partly drawn)?
**A.** TGI (A498 renal): 36 µM; TGI (LXFL 529 NSCLC): 8.89 µM; TGI (SNB-75 CNS): 39.2 µM; TGI (TK-10 renal): 18.3 µM; TGI (OVCAR-8 ovarian): 19.7 µM; TGI (SNB-78 CNS): > 61.4 µM; TGI (SK-MEL-5 melanoma): 35.6 µM; TGI (MOLT-4 leukemia): > 56.9 µM; TGI (HCT-116 colon): 36 µM; TGI (LOX IMVI melanoma): 32.6 µM; TGI (CAKI-1 renal): 16.3 µM; TGI (NCI-H460 lung): 38.1 µM; TGI (K-562 leukemia): > 87 µM; TGI (M14 melanoma): 20.4 µM; TGI (HOP-18 NSCLC): 34.2 µM; TGI (SN12C renal): 28.1 µM; TGI (HOP-62 NSCLC): 27.9 µM; TGI (OVCAR-3 ovarian): 21.8 µM; TGI (COLO 205 colon): 41.8 µM; TGI (DMS 273 small cell lung): > 58.5 µM; TGI (786-0 renal): 26.4 µM; TGI (SK-OV-3 ovarian): 43.7 µM; GI50 (DMS 114 small cell lung): 6.42 µM; TGI (DMS 114 small cell lung): 22 µM; TGI (UACC-257 melanoma): 45.8 µM; TGI (SK-MEL-2 melanoma): 10.2 µM; TGI (A549 NSCLC): 54.4 µM; TGI (U251 CNS): 13.2 µM; TGI (EKVX NSCLC): 37.3 µM; TGI (ACHN renal): 35.4 µM; TGI (SF-295 CNS): 63.5 µM; TGI (SF-539 CNS): 29.1 µM; TGI (KM20L2 colon): 36.6 µM; TGI (MALME-3M melanoma): 35.5 µM; TGI (M19-MEL melanoma): > 56.5 µM; TGI (SK-MEL-28 melanoma): 27.1 µM; TGI (SW-620 colon): 17.6 µM; TGI (SR leukemia): 21 µM; TGI (SF-268 CNS): 28.7 µM; TGI (UACC-62 melanoma): 32.7 µM; TGI (HCC-2998 colon): 33.5 µM; TGI (SNB-19 CNS): 35.5 µM; TGI (NCI-H226 lung): 38.4 µM; TGI (OVCAR-4 ovarian): 16.4 µM; TGI (KM12 colon): 19.5 µM; TGI (OVCAR-5 ovarian): 33.9 µM; TGI (HT29 colon): 35.8 µM; TGI (HCT-15 colon): 12.2 µM; TGI (UO-31 renal): 50.9 µM; TGI (IGROV1 ovarian): 15.3 µM; TGI (RPMI-8226 leukemia): 21.7 µM; TGI (DLD-1 colon): 14.6 µM; TGI (NCI-H522 lung): 12.7 µM; TGI (CCRF-CEM leukemia): > 100 µM; TGI (NCI-H23 lung): 27.6 µM; TGI (HOP-92 NSCLC): 14.7 µM; TGI (HL-60(TB) leukemia): 21 µM
